US11571483B2, “E2F reporter melanoma cells” (THOMAS JEFFERSON UNIVERSITY, priority 2015, dated 2023)

Experiments:
[1] = tested on: 1205Lu xenografts; assay: 1205Lu reporter xenograft model, tumor volume / response; format: in vivo, immunodeficient nude mice
Source text: (§1) FIG. 7 A depicts the E2F reporter system for measuring the efficacy of CDK4/6 and MEK inhibitors in vivo. Firefly luciferase is expressed under the control of E2F response elements. […] CR=complete response. FIG. 7D depicts analysis of E2F reporter activity normalized to tdTomato fluorescent protein activity in 1205Lu xenografts. […] CR=complete response. FIG. 7G depicts representative images of 1205Lu xenografts taken from mice fed vehicle, MEK inhibitor, CDK4/6 inhibitor and combo-laced chow analyzed for Ki67. FIG. 7H depicts quantitation of Ki67 positive cells (% of total cells) taken from mice fed vehicle (n=2), MEK inhibitor (n=4), CDK4/6 inhibitor (n=4) and combo laced chow (n=4).
(§2) Indeed, in a performed xenograft mouse model, 1205Lu reporter cells were intradermally injected into immunodeficient nude mice.
(§3) Mice were retreated with combination regimen at day 67. FIG. 9B depicts modulation of E2F activity in combination treated mice following drug removal and retreatment. […] FIG. 9C depicts RPPA analysis on resistant tumors.

[2] = tested on: E2F; assay: E2F reporter activity in 1205Lu xenografts (luciferase normalized to tdTomato); format: in vivo, immunodeficient nude mice; details: drug-laced chow
Source text: as §1, §2, §3

[3] = tested on: E2F; assay: E2F reporter assay in vitro (firefly luciferase normalized to actin); format: cell-based, human; details: 1205Lu reporter cells; palbociclib (0.5 μM), 48 hours
Source text: CR=complete response. […] CR=complete response.
Tumor cells were also transduced with tdTomato fluorescent protein to selectively monitor tumor growth. […] In FIG. 8 1205Lu reporter cells were transfected with silencing RNA to control sequence, CDK4, CDK6 or both CDK4 and CDK6. […] Firefly luciferase activity was normalized to actin levels in each sample.

Row | Structure (SMILES) | complete regressions ([1]; MEK inhibitor chow (mouse #6)) | tumor regrowth on treatment ([1]; by treatment day 44) | tumor volume, initial response ([1]; drug-laced chow) | E2F reporter activity in tumors on treatment [2] | reduction in firefly luciferase activity normalized to actin levels [3]
1 | O=C(NOC[C@H](O)CO)c1ccc(F)c(F)c1Nc1ccc(I)cc1F [PD0325901] | one complete regression | dramatic tumor regrowth | initially maintained tumor volumes at a static level | strong E2F reactivation | –
2 | CC(=O)c1c(C)c2cnc(Nc3ccc(N4CCNCC4)cn3)nc2n(C2CCCC2)c1=O [palbociclib] | – | – | – | – | 60%
